Assay [1] concerns the target NOX4 (Homo sapiens, UniProt Q9NPH5). The following applies: NOX4 T-rex cells, tetracycline 24 h, antimycin A 1 μM, compound 10 μM.
Description: For NOX4-dependent oxygen consumption, NOX4 T-Rex HEK cells (50,000 cells/well) were plated onto poly-L-lysine coated XF24 cell culture microplates (Seahorse), treated with 1 μg/mL tetracycline and incubated at 37 °C with 5% CO2 for 24 h. One hour prior to assay, the medium was changed to DMEM without carbonate buffer supplemented with 10 mM HEPES, pH 7.4 and the cells were then incubated for 1 h at 37 °C in normal atmosphere. The baseline oxygen consumption rate (OCR) was recorded 3 times before rotenone (1 μM) and antimycin A (1 μM) were added to eliminate mitochondrial oxygen consumption and 1 OCR cycle was measured. Test compounds were added in the second injection and 4 OCR cycles were recorded. Each OCR cycle was as follows: 3 min mixing; 2 min waiting; 3 min measuring. The basal OCR in tetracycline-induced cells (prior to addition of blockers of mitochondrial respiration) was considered as 100%. Data were analysed using Wave XFe 2.1.0 software. At least three independent experiments were performed for each compound.
Another assay deals with all NOX isoforms. The following applies: compound 10 μM, NOX1-5, DUOX1, DUOX2 cell lines.
The next assay has as its target NOX5. Set-up: method as in PMID 27273790. The following applies: documented values, measured using Amplex Red/HRP assay; cited from earlier work.
Assay [2] addresses NOX4. Set-up: method as in PMID 27273790. Particulars: documented values, measured using Amplex Red/HRP assay; cited from earlier work.
A further assay has as its target NOX1. Also noted: method as in PMID 27273790. The following applies: documented values, measured using Amplex Red/HRP assay; cited from earlier work.
The next assay deals with NOX2. Set-up: method as in PMID 27273790. Particulars: documented values, measured using Amplex Red/HRP assay; cited from earlier work.

Data on two compounds can be found in PMC6658998, “Pharmacological characterization of the seven human NOX isoforms and their inhibitors” (Redox Biology, 2019).

NOX4 (Homo sapiens, UniProt Q9NPH5), sequence (Q9NPH5 whole entry, canonical isoform): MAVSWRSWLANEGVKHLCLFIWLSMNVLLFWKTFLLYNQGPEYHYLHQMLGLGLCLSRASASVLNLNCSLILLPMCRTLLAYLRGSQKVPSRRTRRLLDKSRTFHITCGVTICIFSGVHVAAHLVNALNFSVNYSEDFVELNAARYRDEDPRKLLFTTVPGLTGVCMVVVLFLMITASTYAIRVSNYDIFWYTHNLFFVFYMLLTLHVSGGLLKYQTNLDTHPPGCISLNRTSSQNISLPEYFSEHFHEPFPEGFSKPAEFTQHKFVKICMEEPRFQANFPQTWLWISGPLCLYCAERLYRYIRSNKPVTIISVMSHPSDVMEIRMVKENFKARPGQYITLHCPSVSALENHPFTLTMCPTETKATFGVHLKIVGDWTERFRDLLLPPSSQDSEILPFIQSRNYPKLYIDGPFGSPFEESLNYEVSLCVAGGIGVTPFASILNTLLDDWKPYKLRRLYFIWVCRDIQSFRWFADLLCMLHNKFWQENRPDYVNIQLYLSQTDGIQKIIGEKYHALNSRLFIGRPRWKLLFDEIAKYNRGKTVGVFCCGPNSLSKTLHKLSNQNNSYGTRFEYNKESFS
NOX4 (Homo sapiens, UniProt Q9NPH5), sequence (P13498 whole entry partner, canonical isoform): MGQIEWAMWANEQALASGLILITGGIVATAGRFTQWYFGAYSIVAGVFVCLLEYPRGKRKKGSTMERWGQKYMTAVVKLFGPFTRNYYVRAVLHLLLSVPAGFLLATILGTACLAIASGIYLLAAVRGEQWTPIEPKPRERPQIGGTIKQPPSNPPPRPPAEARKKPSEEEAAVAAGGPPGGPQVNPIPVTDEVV

Take `c1ccc2c(c1)[I+]c1ccccc1-2` [DPI, diphenylene iodonium chloride]: the “Inhibition of NOX4-dependent (non-mitochondrial) oxygen consumption” value at NOX4 [1] is “inhibited”. Moreover, the “Inhibition of NOX isoforms in cell lines” value in the assay with all NOX isoforms was “inhibits all NOX isoforms”.
On to `Cc1c2c(=O)n(-c3ccccc3Cl)[nH]c2cc(=O)n1Cc1ccccn1` [GKT136901], for which the “Ki NOX5” value at NOX5 was “nanomolar range”. Also, at NOX4 [2], the “Ki NOX4” value is recorded as “nanomolar range”. The “Ki NOX1” value on NOX1 is “nanomolar range”. The “Ki NOX2” value at NOX2 was “micromolar range”.
